# Measured values reported in patent US7307166B1, “Oxpurine nucleosides and their congeners, and acyl, derivatives thereof, for improvement of hematopoiesis” (Wellstat Therapeutics Corporation, priority 1987, dated 2007).
# Columns and labels:
# [1] = test system: Normal Balb/C female mice; experiment: Hematopoiesis in normal mice; type: in vivo, mouse; settings: for number of myelocytes (femoral bone marrow) / spleen weight: Ex 56: fifth day; for number of myelocytes (femoral bone marrow): 2.6 μmoles/mouse daily 4 days; for spleen weights: 2.5 Moles/mouse/day i.p.; for spleen weight: 2.6 μmoles/mouse i.p. daily 4 days
# Procedure: Normal, otherwise untreated, female Balb/C mice weighing approximately 20 grams each received a total of 4 or 9 0.4 ml intraperitoneal injections (one per day) of either Tween-80 (0.2%) (controls), palmitoylguanosine ([…]), or palmitoyldeoxyinosine ([…]). Twenty-four hours after the 4th or 9th treatment, groups of 5 or 6 animals from each of the 3 groups were bled and then sacrificed by cervical dislocation. Spleens were removed and weighed, and complete blood cell counts performed.
# Normal Balb/C female mice weighing approximately 20 grams each were given a daily 0.4 ml i.p. injection of either physiological saline (controls), palmitoylguanosine (2.6 μmoles/mouse), palmitoyldeoxyguanosine (2.6 μmoles/mouse), monopalmitoylguanosine 2′,3′-acyclic dialcohol (2.6 μmoles/mouse), and palmitoyl-8-bromoguanosine (2.6 μmoles/mouse) for 4 days. On the fifth day all 3 animals in each of the 5 groups were bled and then sacrificed by cervical dislocation. Spleens were removed and weighed, and complete blood cell counts performed. Femoral bone marrow from each mouse was collected and a differential cell count performed on marrow smears.
# [2] = test system: Balb/C female mice; experiment: Hematopoietic recovery after cyclophosphamide in mice (spleen weight, blood cell counts); type: in vivo, mouse; settings: Ex 48: day 7 after CP; 2.5 μmoles/mouse
# Procedure: Twenty-four hours later and each day thereafter for a total of 6 days, mice were given a 0.4 ml i.p. injection of either physiological saline (controls), guanine (5 μmoles/mouse/day), or guanosine (5 μmoles/mouse/day). On day 7 all 10 mice in each of the three groups were bled, and then sacrificed by cervical dislocation. Spleens were removed and weighed, and complete blood cell counts performed.
# Twenty-four hours later and each day thereafter for a total of 6 days, mice were given a 0.4 ml i.p injection of either physiological saline (controls), Tween 80 (0.2%), guanosine (5 μmoles/mouse/day in 0.2% Tween 80), or 2.5 μmoles per mouse per day of one of the following acylated derivatives of guanosine in 0.2% Tween 80: triacetylguanosine, octanoylguanosine, lauroylguanosine, or palmitoylguanosine. On day 7 following CP administration all 10 animals from each of the 7 groups were bled, and then sacrificed by cervical dislocation. Spleens were removed and weighed, and complete blood counts performed.
# Twenty-four hours later treatment was begun. Mice were given a 0.4 ml i.p. injection of either physiological saline (controls), Tween 80 (0.2%), or palmitoylguanosine (5 μmoles/mouse/day in 0.2% Tween 80). The timing of the treatments was varied within the groups. The control group was given saline on days 1-6. The mice receiving Tween 80 were treated either on days 1-4, 4-6 or 1-6. Palmitoylguanosine-treated mice were treated either on days 1-2, 1-4, 3-5, 4-6 or 1-6. If a group of mice received no Tween 80 or palmitoylguanosine on a given day, saline was administered by i.p. injection. Thus, there were 9 groups of 9 animals in all. On day 7 following CP administration all of the animals were bled and then sacrificed by cervical dislocation. Spleens were removed and weighed, and complete blood cell counts performed.
# Twenty-four hours later and each day thereafter for a total of 6 days, mice were given a 0.4 ml i.p. injection of either physiological saline (controls), Tween 80 (0.5%), or one of three different doses of octanoylguanosine (0.5, 2.5, or 5 μmoles/mouse/day in 0.5% Tween 80). On day 7 following CP administration all 9 animals from each of the […] were bled and then sacrificed by cervical dislocation. Spleens were removed and weighed, and complete blood cell counts performed.
# Twenty-four hours later and each day thereafter for a total of 6 days, mice were given a 0.4 ml i.p. injection of either physiological saline (controls), Tween 80 (0.5%), or octanoylguanosine (5.0 μmoles/mouse/day in 0.5% Tween 80). On day 7 following CP administration all 10 animals from each of the 3 groups were bled and then sacrificed by cervical dislocation. Spleens were removed, weighed, and fixed in 10% formalin for later histological examination. Complete blood cell counts were performed on the collected blood.
# Twenty-four hours later and each day thereafter for a total of 6 days, mice were given a 0.4 ml i.p. injection of either physiological saline (controls), benzoylguanosine (2.5 μmoles/mouse/day in 0.2% Tween 80), or palmitoylguanosine (2.5 μmoles/mouse/day in 0.2% Tween 80). On days 7 and 10 following CP administration 8 animals from each of the 3 groups were bled and then were sacrificed by cervical dislocation. Spleens were removed and weighed, and complete blood cell counts performed.
# Twenty four hours later and each day thereafter for a total of 4 or 6 days, mice were given a 0.4 ml i.p. injection of either physiological saline (controls), palmitoyldeoxyinosine (2.5 μmoles/mouse), or palmitoyl-xanthosine (2.5 μmoles/mouse). On days 5 and 7 following CP administration 6 of the 12 animals in each of the 3 groups were bled and then sacrificed by cervical dislocation. Spleens were removed and weighed, and complete blood cell counts performed.
# [3] = test system: Balb/C female mice; experiment: as above; type: in vivo, mouse
# [4] = test system: F344 male rats; experiment: Recovery of blood cell counts in rats after cyclophosphamide; type: in vivo, rat
# Procedure: Cyclophosphamide (CP) (40 mg/kg, i.p.) was administered to 16 F344 male rats weighing approximately 200 grams each. Twenty-four hours later and each day thereafter rats were given a 0.5 ml i.p. injection of either physiological saline (controls), or palmitoyldeoxyguanosine at a dose of 10 μmoles/rat. On days 5, 7 and 10 following CP administration all 8 animals from both groups were bled and complete blood cell counts performed. On day 10 all of the rats were sacrificed and their spleens removed and weighed.
# [5] = test system: Balb/C female mice; experiment: Hematopoietic recovery after 5-fluorouracil in mice; type: in vivo, mouse
# Procedure: 5-fluorouracil (5-FU) (150 mg/kg, i.p.) was administered to forty Balb/C female mice weighing approximately 20 grams each. Twenty-four hours later and each day thereafter for a total of 8 days, mice were given a 0.4 ml i.p. injection of either physiological saline (controls) or 5′-O-palmitoylguanosine (2.5 μmoles/mouse/day in 0.2% Tween 80). On days 7 and 14 following 5-FU administration half of the animals from each group were bled and then were sacrificed by cervical dislocation. Spleens were removed and weighed, and complete blood cells counts performed.
# 5-fluorouracil (5-FU) (150 mg/kg, i.p.) was administered to fifty-four Balb/C female mice weighing approximately 20 grams each. Twenty-four hours later and each day thereafter for a total of 7 days, mice were given a 0.4 ml i.p. injection of either physiological saline (controls) or palmitoylguanosine (2.5 μmoles/mouse/day in 0.2% Tween 80). On days 8, 10 and 12 following administration of 5-FU nine animals from each group were bled and then sacrificed by cervical dislocation. Spleens were removed and weighed, and complete blood cell counts performed.
# Twenty-eight female Balb/C mice weighing approximately 20 grams each received a 0.4 ml i.p. injection of either physiological saline (controls), or palmitoyldeoxyguanosine (1 μmole/mouse) daily for three days. On the fourth day 5-fluorouracil (5-FU) (150 mg/kg, i.p.) was administered to all 28 of the animals. On days 5, 8 and 11 following 5-FU administration 4 (day 5) or 5 (days 8 and 11) animals from both groups were bled and then sacrificed by cervical dislocation. Spleens were removed and weighed, and complete blood cell counts performed. […]
# Sixty female Balb/C mice weighing approximately 20 grams each were distributed into one of five treatment groups and treated once daily for three days by i.p. injection with 3′,5′-O—N^2-tripalmitoyl-2′-deoxyguanosine at a dose of either 1, 5, 10, 25, or 50 mg/kg/treatment in a Tween-DMSO vehicle (0.2% Tween-80 and 7.5% DMSO in physiological saline). Injection volume was 0.4 ml. An additional twelve animals (controls) received vehicle alone on those three days. On the fourth day all seventy-two animals received a single i.p. injection of 5-fluorouracil (5-FU) at a dose of 150 mg/kg. On days 7 and 10 following 5-FU administration six mice from each group were bled and then sacrificed by cervical dislocation. Six untreated mice were also bled and sacrificed to provide data on normal (basal) values. Spleens were removed and weighed, and complete blood cell counts performed.
# [6] = test system: IL-3-dependent bone marrow cells; experiment: Apoptosis of IL-3-dependent bone marrow cells deprived of IL-3 (trypan blue exclusion); type: cell-based, mouse
# Procedure: Bone marrow cells were obtained by flushing the femurs of three male B6D2F1 mice. The cells were plated at 5.0×10^5/ml in MEM plus 10% fetal calf serum and 25 Units/ml of recombinant IL-3 for 24-48 hours. Non-adherent cells were then separated from adherent cells and maintained for an additional twelve days. IL-3 washed from cells, and cells were plated in MEM plus 10% fetal calf serum in the presence or absence of IL-3 and with or without the addition of palmitoyldeoxyguanosine (10 micrograms per milliliter) or deoxyguanosine (10 micrograms per milliliter). Cells were counted using the trypan blue exclusion method, and the percent of dead cells (trypan blue positive) was determined at 24, 40, 60 and 84 hours following the wash.
# [7] = test system: human myeloid leukemia cell line (HL-60); settings: incubation of HL-60 cells; cited from earlier work
# [8] = Ex 48: day 5 after CP, 2.5 μmoles/mouse
# [9] = Ex 50: day 5 after CP, 2 μmoles/mouse
# [10] = Ex 51: day 5 after CP, 2 μmoles/mouse
# [11] = Ex 52: days 5 and 7 after CP, 0.2-2.0 μmoles/mouse, except 0.2 on day 5
# [12] = Ex 53: day 5 after CP, palmitoylguanosine 2.0, palmitoyldeoxyguanosine 1.0 μmoles/mouse
# [13] = Ex 53: day 7 after CP, palmitoylguanosine 1.0 and 2.0, palmitoyldeoxyguanosine 1.0 μmoles/mouse
# [14] = Ex 57: day 8 after 5-FU, pretreatment
# [15] = Ex 57: day 11 after 5-FU, pretreatment
compound,measurement,setting,value
CCCCCCCCCCCCCCCC(=O)OC[C@H]1O[C@@H](n2c(Br)nc3c(=O)[nH]c(N)nc32)[C@H](O)[C@@H]1O [palmitoyl-8-bromoguanosine],number of myelocytes (femoral bone marrow),[1],significantly greater
CCCCCCCCCCCCCCCC(=O)OC[C@H]1O[C@@H](n2cnc3c(=O)[nH]cnc32)C[C@@H]1O,Neutrophils,[2],significantly increased
same,total leukocytes,[2],significantly increased
same,neutrophil counts,[3]; [8],significantly elevated
same,total leukocyte counts,[3]; [8],significantly elevated
same,spleen weight,"[3]; Ex 48: day 5 after CP, 2.5 μmoles/mouse i.p. daily",significantly elevated
same,spleen weight,"[3]; Ex 48: day 7 after CP, 2.5 μmoles/mouse",significantly increased
same,spleen weight,[3]; [9],significantly elevated
same,spleen weights,"[1]; Ex 44: day 5, 4 injections",significantly greater
same,spleen weights,"[1]; Ex 44: day 10, 9 injections, vs Tween 80",significantly greater
same,neutrophil counts,"[1]; Ex 44: day 10, 9 injections",significantly greater
same,total leukocyte counts,"[1]; Ex 44: day 10, 9 injections",significantly greater
Palmitoyl-2′-Deoxyguanosine [palmitoyldeoxyguanosine],Lymphocytes,"[4]; day 10 after CP, 10 μmoles/rat",significantly elevated
same,Platelets,"[4]; day 10 after CP, 10 μmoles/rat",significantly elevated
same,spleen weight,"[4]; day 10 after CP, 10 μmoles/rat",significantly elevated
same,white blood cell counts,"[4]; days 5, 7 and 10 after CP 40 mg/kg, 10 μmoles/rat i.p. daily",significantly elevated
same,total neutrophil counts,"[4]; days 5, 7 and 10 after CP, 10 μmoles/rat",significantly elevated
same,total neutrophil counts,[3]; [10],significantly elevated
same,white blood cell counts,[3]; [10],significantly elevated
same,spleen weight,"[3]; Ex 51: day 5 after CP, 2 μmoles/mouse i.p. daily, vs Tween-80",significantly elevated
same,spleen weight,"[3]; Ex 52: days 5 and 7 after CP, 0.2, 0.4, 1.0, 2.0 μmoles/mouse, except 0.2 on day 5",significantly elevated
same,total neutrophil counts,[3]; [11],significantly elevated
same,white blood cell counts,[3]; [11],significantly elevated
same,spleen weight,[3]; [12],significantly elevated
same,total neutrophil counts,[3]; [12],significantly elevated
same,white blood cell counts,[3]; [12],significantly elevated
same,spleen weight,[3]; [13],significantly elevated
same,total neutrophil counts,[3]; [13],significantly elevated
same,white blood cell counts,[3]; [13],significantly elevated
same,potency in elevating spleen weight and cell counts vs palmitoylguanosine,[3]; Ex 53: vs the same or a 2-fold greater dose of palmitoylguanosine,more potent
same,spleen weight,"[3]; Ex 54: day 5 after CP, doses of 0.2 μmoles/mouse or greater",significantly elevated
same,white blood cell counts,"[3]; Ex 54: day 5 after CP, doses of 0.4 μmoles/mouse or greater",significantly elevated
same,white blood cell counts,"[3]; Ex 54: day 7 after CP, all doses 0.04-0.8 μmoles/mouse",statistically significant differences
same,spleen weight,"[3]; Ex 54: day 7 after CP, all doses except 0.04 μmoles/mouse",significantly elevated
same,total neutrophil counts,"[3]; Ex 54: days 5 and 7 after CP, all 6 doses 0.04-0.8 μmoles/mouse",significantly elevated
same,number of myelocytes (femoral bone marrow),[1],significantly greater
same,spleen weight,[1],significantly elevated
same,platelet counts,"[5]; Ex 57: day 5 after 5-FU, pretreatment 1 μmole/mouse i.p. daily 3 days",significantly elevated
same,platelet counts,[5]; [14],significantly higher
same,total neutrophil counts,[5]; [14],significantly higher
same,spleen weight,"[5]; Ex 57: day 8 after 5-FU, pretreatment 1 μmole/mouse",significantly higher
same,lymphocyte counts,[5]; [15],significantly higher
same,platelet counts,[5]; [15],significantly higher
same,spleen weights,[5]; [15],significantly higher
same,total neutrophil counts,[5]; [15],significantly higher
same,total white blood cell counts,[5]; [15],significantly higher
"monopalmitoylguanosine 2′,3′-acyclic dialcohol",spleen weight,[3]; [9],significantly elevated
same,number of myelocytes (femoral bone marrow),[1],significantly greater
same,spleen weight,[1],significantly elevated
"Nc1nc2c(ncn2[C@H]2C[C@H](O)[C@@H](CO)O2)c(=O)[nH]1 [dG, deoxyguanosine]",% Dead Cells,"[6]; 24 hr after IL-3 wash, PdG or dG 10 micrograms per milliliter without IL-3, +IL3 = with IL-3",15.5 ± 0.5%
same,% Dead Cells,"[6]; 40 hr after IL-3 wash, 10 micrograms per milliliter",21.5 ± 3.5 %
same,% Dead Cells,"[6]; 60 hr after IL-3 wash, 10 micrograms per milliliter",46.3 ± 10.3%
same,% Dead Cells,"[6]; 84 hr after IL-3 wash, 10 micrograms per milliliter",68.3 ± 6.0%
"OC[C@H]1O[C@@H](n2cnc3c(O)ncnc32)[C@H](O)[C@@H]1O [inosine, reference compound]",induced maturation into functional neutrophils,[7],no effect
